Where two headings read alike, the source gives them in different places.
How the values were obtained:
[1] = target: T1, biotinylated Avi-POLΘ[2-894] (Homo sapiens, UniProt O75417); assay: ATPase assay (ADP-Glo): POLΘ-mediated ATP hydrolysis; conditions: read-out: Biochemical ATPase ADPGlo IC50
T1 construct: 1 nM biotinylated Avi-POLΘ[2-894]

DLD1 BRCA2 (−/−) cells = assay: DLD1 viability assay (CellTiter-Glo, 7 days), DLD1 BRCA2 (−/−); type: cell-based; conditions: read-out: Viability IC50 (μM) DLD1 BRCA2 null
DLD1 WT cells = assay: DLD1 viability assay (CellTiter-Glo, 7 days), DLD1 WT; type: cell-based

T1 sequence (O75417 2-894 limits assumed): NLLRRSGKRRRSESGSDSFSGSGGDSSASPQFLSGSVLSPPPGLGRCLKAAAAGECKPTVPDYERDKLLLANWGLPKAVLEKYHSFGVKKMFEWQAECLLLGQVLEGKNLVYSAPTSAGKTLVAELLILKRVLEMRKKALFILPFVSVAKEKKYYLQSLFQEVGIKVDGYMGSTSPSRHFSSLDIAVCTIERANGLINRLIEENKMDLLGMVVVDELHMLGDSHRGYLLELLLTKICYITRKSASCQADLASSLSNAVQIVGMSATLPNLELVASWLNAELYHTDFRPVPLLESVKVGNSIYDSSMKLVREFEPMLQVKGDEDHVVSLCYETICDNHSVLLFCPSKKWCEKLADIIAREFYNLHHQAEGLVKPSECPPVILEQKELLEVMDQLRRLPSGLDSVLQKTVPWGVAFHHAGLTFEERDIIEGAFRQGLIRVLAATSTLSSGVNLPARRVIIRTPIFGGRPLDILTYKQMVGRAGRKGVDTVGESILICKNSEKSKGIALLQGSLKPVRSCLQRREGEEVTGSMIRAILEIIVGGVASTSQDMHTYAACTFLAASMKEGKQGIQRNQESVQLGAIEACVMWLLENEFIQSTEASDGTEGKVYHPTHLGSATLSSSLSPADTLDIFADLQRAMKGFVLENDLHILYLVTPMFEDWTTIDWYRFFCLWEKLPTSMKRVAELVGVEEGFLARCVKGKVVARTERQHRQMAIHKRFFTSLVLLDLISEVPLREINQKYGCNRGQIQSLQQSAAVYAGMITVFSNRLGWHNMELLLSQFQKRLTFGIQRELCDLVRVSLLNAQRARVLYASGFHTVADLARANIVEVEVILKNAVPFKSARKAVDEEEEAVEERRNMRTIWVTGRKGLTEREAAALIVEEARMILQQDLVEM

Row | SMILES | IC50 [1] [nM] | IC50 (DLD1 BRCA2 (−/−) cells; Homo sapiens, DLD-1, 168 h) [µM] | IC50 (DLD1 WT cells; Homo sapiens, DLD-1, 168 h) [µM] | IC50 (DLD1 BRCA2 (−/−) cells) [µM] | IC50 (DLD1 WT cells) [µM]
1 | COc1cnc(Cl)cc1-c1cc(C)ncc1C(=O)Nc1nn2cc(C(=O)N[C@H]3CCCC[C@@H]3O)nc2s1 (racemic) [Example 281] | 1 to 15 | > 2 | > 10 |  | 
2 | COc1cnc(Cl)cc1-c1cc(C)ncc1C(=O)Nc1nn2cc(C(=O)NC3CCC3)nc2s1 (racemic) [Example 288] | 1 to 15 | 0.25 to 0.5 | > 10 |  | 
3 | COc1cnc(Cl)cc1-c1cc(C)ncc1C(=O)Nc1nc2ncc(C3CCOC3)nc2s1 (racemic) [Example 510, (Racemic)-2′-chloro-5′-methoxy-6-methyl-N-(6-(tetrahydrofuran-3-yl)thiazolo[4,5-b]pyrazin-2-yl)-[4,4′-bipyridine]-3-carboxamide] | 1 to 15 | 0.1 to 0.25 | > 10 |  | 
4 | COc1cnc(Cl)cc1-c1cc(C)ncc1C(=O)Nc1nc2ncc(C34CC(C#N)(C3)C4)nc2s1 (single isomer, unassigned) [Example 360, 2′-chloro-N-(6-(3-cyanobicyclo[1.1.1]pentan-1-yl)thiazolo[4,5-b]pyrazin-2-yl)-5′-methoxy-6-methyl-[4,4′-bipyridine]-3-carboxamide] | 1 to 15 | 0.001 to 0.1 | > 10 |  | 
5 | COc1cnc(Cl)cc1-c1cc(C)ncc1C(=O)Nc1nc2ncc([C@@H]3CC4CC3C[C@H]4C#N)nc2s1 (single isomer, unassigned) [Example 361A, 2′-chloro-N-(6-((2R or S,5R or S)-5-cyanobicyclo[2.2.1]heptan-2-yl)thiazolo[4,5-b]pyrazin-2-yl)-5′-methoxy-6-methyl-[4,4′-bipyridine]-3-carboxamide] | 1 to 15 | 0.001 to 0.1 | > 10 |  | 
6 | COc1cnc(Cl)cc1-c1cc(C)ncc1C(=O)Nc1nc2ncc([C@@H]3CC4CC3C[C@@H]4C#N)nc2s1 (single isomer, unassigned) [Example 361C, 2′-chloro-N-(6-((2R or S,5S or R)-5-cyanobicyclo[2.2.1]heptan-2-yl)thiazolo[4,5-b]pyrazin-2-yl)-5′-methoxy-6-methyl-[4,4′-bipyridine]-3-carboxamide] | 1 to 15 | 0.001 to 0.1 | > 10 |  | 
7 | COc1cnc(Cl)cc1-c1cc(C)ncc1C(=O)Nc1nc2ncc([C@@H]3CC[C@@H](CO)C3)nc2s1 (single isomer, unassigned) [Example 498, 2′-chloro-N-(6-((1R or S,3R and S)-3-(hydroxymethyl)cyclopentyl)thiazolo[4,5-b]pyrazin-2-yl)-5′-methoxy-6-methyl-[4,4′-bipyridine]-3-carboxamide] | 1 to 15 | 0.001 to 0.1 | > 10 |  | 
8 | COc1cnc(Cl)cc1-c1cc(C)ncc1C(=O)Nc1nc2ncc(C3CCOC3)cc2s1 (single isomer, unassigned) [Example 515, (R or S)-2′-chloro-5′-methoxy-6-methyl-N-(6-(tetrahydrofuran-3-yl)thiazolo[4,5-b]pyridin-2-yl)-[4,4′-bipyridine]-3-carboxamide] | 1 to 15 | 0.1 to 0.25 | > 10 |  | 
9 | COc1cnc(Cl)cc1-c1cc(C)ncc1C(=O)Nc1nn2cc(C(=O)N[C@H]3CC[C@H](O)C3)nc2s1 [Example 21] | 1 to 15 |  |  | 0.5 to 2 | > 10
10 | COc1cnc(Cl)cc1-c1cc(C)ncc1C(=O)Nc1nn2cc(C(=O)N[C@@H]3CCCC[C@@H]3O)nc2s1 [Example 22] | 1 to 15 |  |  | > 2 | > 10
11 | COc1ccccc1-c1cc(C)ncc1C(=O)Nc1nc2ccc(-c3ccccn3)cc2s1 [Example 121, 4-(2-methoxyphenyl)-6-methyl-N-(6-(pyridin-2-yl)benzo[d]thiazol-2-yl)nicotinamide] | 50 to 150 | 0.5 to 2 | 0.001 to 2.5 |  | 
12 | COc1cnc(Cl)cc1-c1cc(C)ncc1C(=O)Nc1nn2cc(C(=O)N[C@H]3CCOC3)nc2s1 [Example 291, (S)-2-(2′-chloro-5′-methoxy-6-methyl-[4,4′-bipyridine]-3-carboxamido)-N-(tetrahydrofuran-3-yl)imidazo[2,1-b][1,3,4]thiadiazole-6-carboxamide] | 1 to 15 | > 2 | > 10 |  | 
13 | COc1cnc(Cl)cc1-c1cc(C)ncc1C(=O)Nc1nn2cc(C(=O)N[C@H]3C[C@@H](O)C3)nc2s1 [Example 308] | 1 to 15 | > 2 | > 10 |  | 
14 | COc1cnc(Cl)cc1-c1cc(Oc2cccc(N)c2)ncc1C(=O)Nc1nn2cc(C3CC3)nc2s1 [Example 494, 6-(3-aminophenoxy)-2′-chloro-N-(6-cyclopropylimidazo[2,1-b][1,3,4]thiadiazol-2-yl)-5′-methoxy-[4,4′-bipyridine]-3-carboxamide] | 15 to 50 |  |  |  | 
15 | COc1cnc(Cl)cc1-c1cc(Oc2cccc(NC(=O)OC(C)(C)C)c2)ncc1C(=O)Nc1nn2cc(C3CC3)nc2s1 [Example 495, tert-butyl (3-((2′-chloro-5-((6-cyclopropylimidazo[2,1-b][1,3,4]thiadiazol-2-yl)carbamoyl)-5′-methoxy-[4,4′-bipyridin]-2-yl)oxy)phenyl)carbamate] | 150 to 900 |  |  |  | 
16 | COc1cnc(Cl)cc1-c1cc(C)ncc1C(=O)Nc1nc2ncc(N3CC[C@H](CO)C3)nc2s1 [Example 500, (S)-2′-chloro-N-(6-(3-(hydroxymethyl)pyrrolidin-1-yl)thiazolo[4,5-b]pyrazin-2-yl)-5′-methoxy-6-methyl-[4,4'-bipyridine]-3-carboxamide] | 15 to 50 |  |  |  | 
17 | COc1cnc(Cl)cc1-c1cc(C)ncc1C(=O)Nc1nc2ncc(N3CC[C@@H](CO)C3)nc2s1 [Example 501, (R)-2′-chloro-N-(6-(3-(hydroxymethyl)pyrrolidin-1-yl)thiazolo[4,5-b]pyrazin-2-yl)-5′-methoxy-6-methyl-[4,4′-bipyridine]-3-carboxamide] | 1 to 15 |  |  |  | 
18 | COc1cnc(Cl)cc1-c1cc(C)ncc1C(=O)Nc1nc2ncc(N3CC(CO)C3)nc2s1 [Example 505, 2′-chloro-N-(6-(3-(hydroxymethyl)azetidin-1-yl)thiazolo[4,5-b]pyrazin-2-yl)-5′-methoxy-6-methyl-[4,4′-bipyridine]-3-carboxamide] | 1 to 15 |  |  |  | 
19 | Cc1cc(-c2nn(C)c3ccncc23)c(C(=O)Nc2nc3ncc(-c4ccncc4)nc3s2)cn1 [Example 517, 6-methyl-4-(1-methyl-1H-pyrazolo[4,3-c]pyridin-3-yl)-N-(6-(pyridin-4-yl)thiazolo[4,5-b]pyrazin-2-yl)nicotinamide] | > 900 |  |  |  | 

Continued, in another order:

Row | IC50 [1] [nM] | IC50 (DLD1 BRCA2 (−/−) cells; Homo sapiens, DLD-1, 168 h) [µM] | IC50 (DLD1 WT cells; Homo sapiens, DLD-1, 168 h) [µM] | SMILES | IC50 (DLD1 BRCA2 (−/−) cells) [µM] | IC50 (DLD1 WT cells) [µM]
20 | 1 to 15 | 0.001 to 0.1 | > 10 | COc1cnc(Cl)cc1-c1cc(C)ncc1C(=O)Nc1nc2ncc(C34CCC(C#N)(CC3)CC4)nc2s1 (single isomer, unassigned) [Example 359, 2′-chloro-N-(6-(4-cyanobicyclo[2.2.2]octan-1-yl)thiazolo[4,5-b]pyrazin-2-yl)-5′-methoxy-6-methyl-[4,4′-bipyridine]-3-carboxamide] |  | 
21 | 1 to 15 | 0.001 to 0.1 | > 10 | COc1cnc(Cl)cc1-c1cc(C)ncc1C(=O)Nc1nc2ncc(C3CC4CC3CC4C#N)nc2s1 (single isomer, unassigned) [Example 361, 2′-chloro-N-(6-(5-cyanobicyclo[2.2.1]heptan-2-yl)thiazolo[4,5-b]pyrazin-2-yl)-5′-methoxy-6-methyl-[4,4′-bipyridine]-3-carboxamide] |  | 
22 | 1 to 15 | 0.001 to 0.1 | > 10 | COc1cnc(Cl)cc1-c1cc(C)ncc1C(=O)Nc1nc2ncc([C@H]3CC4CC3C[C@@H]4C#N)nc2s1 (single isomer, unassigned) [Example 361B, 2′-chloro-N-(6-((2S or R,5S or R)-5-cyanobicyclo[2.2.1]heptan-2-yl)thiazolo[4,5-b]pyrazin-2-yl)-5′-methoxy-6-methyl-[4,4′-bipyridine]-3-carboxamide] |  | 
23 | 1 to 15 | 0.001 to 0.1 | > 10 | COc1cnc(Cl)cc1-c1cc(C)ncc1C(=O)Nc1nc2ncc([C@H]3CC4CC3C[C@H]4C#N)nc2s1 (single isomer, unassigned) [Example 361D, 2′-chloro-N-(6-((2S or R,5R or S)-5-cyanobicyclo[2.2.1]heptan-2-yl)thiazolo[4,5-b]pyrazin-2-yl)-5′-methoxy-6-methyl-[4,4′-bipyridine]-3-carboxamide] |  | 
24 | 1 to 15 | 0.25 to 0.5 | > 10 | COc1ccccc1-c1cc(C)ncc1C(=O)Nc1nc2ncc(-c3ccnc(C)c3)cc2s1 [Example 87] |  | 
25 | 1 to 15 |  |  | COc1cnc(Cl)cc1-c1cc(C)ncc1C(=O)Nc1nc2ncc(N3CCCC3)nc2s1 [Example 484, 2′-chloro-5′-methoxy-6-methyl-N-(6-(pyrrolidin-1-yl)thiazolo[4,5-b]pyrazin-2-yl)-[4,4′-bipyridine]-3-carboxamide] |  | 
26 | 50 to 150 |  |  | COc1cnc(Cl)cc1-c1cc(Oc2cc(N)cc(Cl)c2)ncc1C(=O)Nc1nn2cc(C3CC3)nc2s1 [Example 493, 6-(3-amino-5-chlorophenoxy)-2′-chloro-N-(6-cyclopropylimidazo[2,1-b][1,3,4]thiadiazol-2-yl)-5′-methoxy-[4,4′-bipyridine]-3-carboxamide] |  | 
27 | 1 to 15 |  |  | COc1cnc(Cl)cc1-c1cc(C)ncc1C(=O)Nc1nc2ncc(N3CC(O)C3)nc2s1 [Example 503, 2′-chloro-N-(6-(3-hydroxyazetidin-1-yl)thiazolo[4,5-b]pyrazin-2-yl)-5′-methoxy-6-methyl-[4,4′-bipyridine]-3-carboxamide] |  | 
28 | 15 to 50 |  |  | Cc1cc(-c2c3cnccc3nn2C)c(C(=O)Nc2nc3ncc(-c4ccncc4)nc3s2)cn1 [Example 513, 6-methyl-4-(2-methyl-2H-pyrazolo[4,3-c]pyridin-3-yl)-N-(6-(pyridin-4-yl)thiazolo[4,5-b]pyrazin-2-yl)nicotinamide] |  | 

Reference: patent US20260015360A1 (MOMA Therapeutics, Inc., priority 2023, published 2026)
